Measurements taken from ChEMBL document CHEMBL1201862, “PubChem BioAssay data set” (2004).
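Cultured in 96-well plates, cells were exposed to test compound for 48 hours across five concentrations. At the GI50, growth is halved.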 Activity calls are given as the source filed them. Rule as the data show it: active = GI50 up to about 1.1 µM and inactive = higher.

What was measured:
Assay in all cases: NCI-60 cell line screen, 48 h
A549 = system: A549
IGROV-1 = system: IGROV-1
OVCAR-3 = system: OVCAR-3
OVCAR-5 = system: OVCAR-5
786-0 = system: 786-0
UACC-62 = system: UACC-62
SNB-19 = system: SNB-19
U-251 = system: U-251
Hs-578T = system: Hs-578T
SK-OV-3 = system: SK-OV-3
SF-268 = system: SF-268
KM12 = system: KM12
HOP-62 = system: HOP-62
HCT-15 = system: HCT-15
SF-295 = system: SF-295
T47D = system: T47D
SN12C = system: SN12C
SW-620 = system: SW-620
DU-145 = system: DU-145
SF-539 = system: SF-539

SMILES | GI50 (A549) | GI50 (IGROV-1) | GI50 (OVCAR-3) | GI50 (OVCAR-5) | GI50 (786-0) | GI50 (UACC-62) | GI50 (SNB-19) | GI50 (U-251) | GI50 (Hs-578T) | GI50 (SK-OV-3) | GI50 (SF-268) | GI50 (KM12) | GI50 (HOP-62) | GI50 (HCT-15) [µM] | GI50 (SF-295) | GI50 (T47D) | GI50 (SN12C) | GI50 (SW-620) | GI50 (DU-145) | GI50 (SF-539)
O=[N+]([O-])c1cc(-[n+]2cc([O-])on2)ccc1Cl | 31 µM (inactive) | 24.3 µM (inactive) | 37.3 µM (inactive) | 18.1 µM (inactive) | 21.3 µM (inactive) | 27.8 µM (inactive) | 14.2 µM (inactive) | 17 µM (inactive) | 13.6 µM (inactive) | 33.5 µM (inactive) | 22.2 µM (inactive) | 22 µM (inactive) | 15.3 µM (inactive) | 20.7 | 23.7 µM (inactive) | 16.4 µM (inactive) | 16.3 µM (inactive) | 13.4 µM (inactive) | 16.9 µM (inactive) | –
CC(C)Cn1cnc2c(SCc3ccccn3)nc(N)nc21 | > 100 µM (inactive) | > 100 µM (inactive) | > 100 µM (inactive) | > 100 µM (inactive) | > 100 µM (inactive) | > 100 µM (inactive) | > 100 µM (inactive) | > 100 µM (inactive) | > 100 µM (inactive) | > 100 µM (inactive) | > 100 µM (inactive) | > 100 µM (inactive) | > 100 µM (inactive) | > 100 | > 100 µM (inactive) | 80.7 µM (inactive) | > 100 µM (inactive) | > 100 µM (inactive) | > 100 µM (inactive) | –
CN(C(=O)[C@H](NC(=O)OCc1ccccc1)c1ccccc1)C1CCCCC1N1CCCC1 (stereo partly drawn) | > 100 µM (inactive) | 70.3 µM (inactive) | > 100 µM (inactive) | > 100 µM (inactive) | 95.1 µM (inactive) | > 100 µM (inactive) | > 100 µM (inactive) | > 100 µM (inactive) | 19.6 µM (inactive) | > 100 µM (inactive) | 62.4 µM (inactive) | > 100 µM (inactive) | > 100 µM (inactive) | > 100 | > 100 µM (inactive) | > 100 µM (inactive) | > 100 µM (inactive) | > 100 µM (inactive) | > 100 µM (inactive) | –
COc1cc(C(c2ccc3c(c2)OCO3)C2SCCCS2)cc(OC)c1OC (stereo not drawn) | 4.22 µM (inactive) | 2.49 µM (inactive) | 3.14 µM (inactive) | 4.81 µM (inactive) | 2.74 µM (inactive) | 2.75 µM (inactive) | 1.86 µM (inactive) | 3.01 µM (inactive) | 2.33 µM (inactive) | 2.81 µM (inactive) | 6.21 µM (inactive) | 3.09 µM (inactive) | 3.03 µM (inactive) | 2.02 | 1.94 µM (inactive) | 3.56 µM (inactive) | 2.51 µM (inactive) | 3.11 µM (inactive) | 3.03 µM (inactive) | –
O=P(O)(O)OC1O[C@H](CO)[C@H](O)[C@H](O)[C@H]1O (stereo partly drawn) | > 100 µM (inactive) | > 100 µM (inactive) | > 100 µM (inactive) | > 100 µM (inactive) | > 100 µM (inactive) | > 100 µM (inactive) | > 100 µM (inactive) | > 100 µM (inactive) | > 100 µM (inactive) | > 100 µM (inactive) | > 100 µM (inactive) | > 100 µM (inactive) | > 100 µM (inactive) | > 100 | > 100 µM (inactive) | > 100 µM (inactive) | > 100 µM (inactive) | > 100 µM (inactive) | > 100 µM (inactive) | –
O=c1oc2ccc([N+](=O)[O-])cc2cc1Br | > 100 µM (inactive) | > 100 µM (inactive) | > 100 µM (inactive) | > 100 µM (inactive) | > 100 µM (inactive) | 31.6 µM (inactive) | > 100 µM (inactive) | > 100 µM (inactive) | > 100 µM (inactive) | – | 27.4 µM (inactive) | > 100 µM (inactive) | 71.6 µM (inactive) | – | > 100 µM (inactive) | 70.6 µM (inactive) | > 100 µM (inactive) | > 100 µM (inactive) | > 100 µM (inactive) | > 100 µM (inactive)
